According to patent publication US8211909B2, “Treatment of antibiotic-resistant bacteria infection” (TaiGen Biotechnology Co., Ltd., priority 2008, dated 2012):
≈ marks a conversion by molar mass, not a printed value. Where two headings read alike, the source gives them in different places.

What was measured:
[1] = system: Staphylococcus epidermidis (MSSE, MRSE); experiment: CANWARD 2007 gram-positive cocci, CLSI broth microdilution; format: cell-based; parameters: MIC50 / MIC90: unit not given beside the values
Procedure: (§1) From January-December 2007, 12 hospitals across Canada submitted isolates from patients attending hospital clinics, emergency rooms, medical and surgical wards, and intensive care units. 7881 isolates (CANWARD 2007) were collected including 3473 gram-positive cocci. Susceptibility testing for Compound 1 and Levofloxacin was performed using the Clinical and Laboratory Standards Institute broth microdilution.

[2] = system: S. aureus (MSSA, CA-MRSA, HA-MRSA, VISA, VRSA); experiment: CANWARD 2007 / NARSA gram-positive cocci, CLSI broth microdilution; format: cell-based, Staphylococcus aureus; parameters: MIC50 / MIC90: unit not given here
Procedure: as §1

[3] = system: multidrug-resistant Methicillin-resistant Staphylococcus aureus; experiment: MIC by agar dilution (CLSI-M100-S18), Taiwan multidrug-resistant MRSA isolates; format: cell-based; conditions: for MIC50 / MIC90: Staphylococcus aureus, MRSA
Procedure: (§2) Compound 1 was tested for its inhibitory effect against multidrug-resistant Methicillin-resistant Staphylococcus aureus and Enterococci obtained by 10 medical centers in all regions of Taiwan. MICs were determined using the agar dilution methods recommended by the Clinical and Laboratory Standards Institute (CLSI-M100-S18).

[4] = system: Staphylococcus aureus strains (MRSA, hVISA, VISA, VRSA, quinolone-resistant MRSA); experiment: MIC by agar dilution against Staphylococcal strains (MRSA, hVISA, VISA, VRSA, quinolone-resistant MRSA); format: cell-based; conditions: for MIC50 / MIC90 / MIC: Staphylococcus aureus
Procedure: Compound 1 was tested for its inhibitory effect against 26 Methicillin-resistant Staphylococcus aureus (MRSA) strains, 2 hetero-Vancomycin intermediate Staphylococcus aureus (hVISA) strains, 24 Vancomycin-intermediate Staphylococcus aureus (VISA) strains, 5 Vancomycin-resistant Staphylococcus aureus (VRSA) strains, and 31 quinolone-resistant Vancomycin-susceptibale MRSA strains with defined mutations in QRDR. These mutations were determined by sequencing analysis of the QRDR (gyrA, gyrB, grlA, and grlB). Efflux testing was performed by the reserpine method (Brenwald, et al., Antimicrob. Agents Chemother. 1998, 42: 2032-2035).

[5] = system: Vancomycin-resistant E. faecalis; experiment: MIC by agar dilution (CLSI-M100-S18), Taiwan Enterococci isolates; format: cell-based, Enterococcus faecalis
Procedure: as §2

[6] = Pharmacokinetic assays of plasma of subjects taking Compound 1; conditions: for Cmax: day 10, plasma; for Free AUC0-24 / Free Cmax: corrected for plasma protein binding
Procedure: 5 mL of each sample was transferred to a heparin sodium tube and immediately placed on ice. Plasma was separated by centrifugation at approximately 4° C. and transferred to appropriately labeled polypropylene specimen containers (two tubes with 1-1.5 mL plasma/tube) and frozen at approximately −70° C. before use.
Prior to analysis of the blood samples, pharmacokinetic assays were validated.
The pharmacokinetic assays of the blood samples were performed by Charles River Laboratories (Worcester, Mass.).

[7] = Ciprofloxacin-resistant MRSA (n = 20)
[8] = Ciprofloxacin-susceptible MRSA (n = 20)
[9] = Daptomycin-nonsusceptible MRSA (n = 5)
[10] = Vancomycin-intermediate MRSA (n = 50)
[11] = hVISA(2) + VISA (24) + VRSA (5)
[12] = Enterococcus faecalis, Vancomycin-resistant E. faecalis (n = 34)
[13] = 500 mg q24 p.o., MIC90 0.125 μg/mL
[14] = 500 mg q24 p.o., MIC90 0.5 μg/mL
[15] = 500 mg q24 p.o., MIC90 0.75 μg/mL
[16] = 750 mg q24 p.o., MIC90 0.125 μg/mL
[17] = 750 mg q24 p.o., MIC90 0.5 μg/mL
[18] = 750 mg q24 p.o., MIC90 0.75 μg/mL
[19] = 1000 mg q24 p.o., MIC90 0.125 μg/mL
[20] = 1000 mg q24 p.o., MIC90 0.5 μg/mL
[21] = 1000 mg q24 p.o., MIC90 0.75 μg/mL
[22] = 1000 mg q24 p.o., MIC90 1 μg/mL

## COc1c(N2C[C@@H](C)C[C@H](N)C2)ccc2c(=O)c(C(=O)O)cn(C3CC3)c12 [Compound 1, (3S,5S)-7-[3-amino-5-methyl-piperidinyl]-1-cyclopropyl-1,4-dihydro-8-methoxy-4-oxo-3-quinolinecarboxylic acid]
[1]; MRSE
  activity compared with Levofloxacin (in words): more active than Levofloxacin
[1]; MRSE (9)
  MIC50: 2/2
  MIC90: 2/2
[1]; MSSE (32)
  MIC50: 0.03
  MIC90: 0.5
[2]; CA-MRSA (23)
  MIC50: 0.25
  MIC90: 0.5
[2]; HA-MRSA (91)
  MIC50: 4/>4
  MIC90: 4/>4
[2]; MRSA, VISA, VRSA
  activity compared with Levofloxacin (in words): more active than Levofloxacin
[2]; MSSA (372)
  MIC50: 0.03
  MIC90: 0.12
[2]; VISA (12), NARSA isolates
  MIC50: 1
  MIC90: 2
[2]; VRSA (7), NARSA isolates
  median MIC (single value under head MIC50/MIC90): 2
[3]; [7]
  MIC Range: 0.5 to 1 µg/mL
  MIC50: 0.5 µg/mL (≈ 1.35 µM)
  MIC90: 1 µg/mL (≈ 2.69 µM)
[3]; [8]
  MIC Range: ≦0.03-0.06 μg/mL
  MIC50: ≤ 0.03 µg/mL
  MIC90: ≤ 0.03 µg/mL
[3]; [9]
  MIC Range: 0.5 to 1 µg/mL
  MIC50: 0.5 µg/mL (≈ 1.35 µM)
  MIC90: 1 µg/mL (≈ 2.69 µM)
[3]; MRSA isolates that are Ciprofloxacin-resistant, Vancomycin-intermediate-resistant, Daptomycin-nonsusceptible
  inhibition (in words): effective
[3]; [10]
  MIC50: 0.5 µg/mL (≈ 1.35 µM)
  MIC90: 2 µg/mL (≈ 5.38 µM)
  MIC Range: 0.03 to 8 µg/mL
[4]; Methicillin-resistant, hVISA, VISA, VRSA and quinolone-resistant Vancomycin-susceptible MRSA isolates
  inhibition (in words): effectively inhibited
[4]; MRSA (26)
  MIC50: 0.03 µg/mL (≈ 0.0808 µM)
  MIC90: 0.06 µg/mL (≈ 0.162 µM)
[4]; Quinolone-resistant MRSA (31)
  MIC50: 1 µg/mL (≈ 2.69 µM)
  MIC90: 2 µg/mL (≈ 5.38 µM)
[4]; [11]
  MIC50: 1 µg/mL
  MIC90: 2 µg/mL
[4]; read-out: MIC Range, MRSA (26)
  MIC: 0.016 to 0.06 µg/mL (≈ 0.0431 to 0.162 µM)
[4]; read-out: MIC Range, Quinolone-resistant MRSA (31)
  MIC: 0.5 to 4 µg/mL (≈ 1.35 to 10.8 µM)
[4]; read-out: MIC Range, hVISA(2) + VISA (24) + VRSA (5)
  MIC: 0.06 to 2 µg/mL
[4]; read-out: MICs, against these strains
  MIC: 0.06 to 4 µg/mL (≈ 0.162 to 10.8 µM)
[5]; [12]
  MIC50: 4 µg/mL (≈ 10.8 µM)
  MIC90: 4 µg/mL (≈ 10.8 µM)
[5]; Vancomycin-resistant E. faecalis (n = 34)
  MIC Range: 0.12 to 8 µg/mL
[5]; Vancomycin-resistant Enterococcus faecalis
  inhibition (in words): effective
[6]; 500 mg q24 p.o.
  Cmax: 5.56 µg/mL
  Free AUC0-24: 32.4 µg·h/mL
  Free Cmax: 4.7 µg/mL
[6]; [13]
  Free AUC0-24/MIC90 ratio at steady state: 259
  Free Cmax/MIC90 ratio at steady state: 37
[6]; [14]
  Free AUC0-24/MIC90 ratio at steady state: 65
  Free Cmax/MIC90 ratio at steady state: 9
[6]; [15]
  Free AUC0-24/MIC90 ratio at steady state: 43
  Free Cmax/MIC90 ratio at steady state: 6
[6]; 500 mg q24 p.o., MIC90 1 μg/mL
  Free AUC0-24/MIC90 ratio at steady state: 32
  Free Cmax/MIC90 ratio at steady state: 5
[6]; 500 mg q24 p.o., MIC90 […]
  Free AUC0-24/MIC90 ratio at steady state: 130
  Free Cmax/MIC90 ratio at steady state: 19
[6]; 750 mg q24 p.o.
  Cmax: 6.82 µg/mL
  Free AUC0-24: 49.1 µg·h/mL
  Free Cmax: 5.7 µg/mL
[6]; [16]
  Free AUC0-24/MIC90 ratio at steady state: 393
  Free Cmax/MIC90 ratio at steady state: 46
[6]; [17]
  Free AUC0-24/MIC90 ratio at steady state: 98
  Free Cmax/MIC90 ratio at steady state: 11
[6]; [18]
  Free AUC0-24/MIC90 ratio at steady state: 65
  Free Cmax/MIC90 ratio at steady state: 8
[6]; 750 mg q24 p.o., MIC90 1 μg/mL
  Free AUC0-24/MIC90 ratio at steady state: 49
  Free Cmax/MIC90 ratio at steady state: 6
[6]; 750 mg q24 p.o., MIC90 […]
  Free AUC0-24/MIC90 ratio at steady state: 196
  Free Cmax/MIC90 ratio at steady state: 23
[6]; 1000 mg q24 p.o.
  Cmax: 8.20 µg/mL
  Free AUC0-24: 62.9 µg·h/mL
  Free Cmax: 6.9 µg/mL
[6]; [19]
  Free AUC0-24/MIC90 ratio at steady state: 503
  Free Cmax/MIC90 ratio at steady state: 55
[6]; [20]
  Free AUC0-24/MIC90 ratio at steady state: 126
  Free Cmax/MIC90 ratio at steady state: 14
[6]; [21]
  Free AUC0-24/MIC90 ratio at steady state: 84
  Free Cmax/MIC90 ratio at steady state: 9
[6]; [22]
  Free AUC0-24/MIC90 ratio at steady state: 63
  Free Cmax/MIC90 ratio at steady state: 7
[6]; 1000 mg q24 p.o., MIC90 […]
  Free AUC0-24/MIC90 ratio at steady state: 251
  Free Cmax/MIC90 ratio at steady state: 28
